This note sets out measurements from patent US20080139607A1, “New Compounds” (ASTRAZENECA AB, priority 2006, published 2008).

Recombinant human PAI-1, sequence (P05121 24-402): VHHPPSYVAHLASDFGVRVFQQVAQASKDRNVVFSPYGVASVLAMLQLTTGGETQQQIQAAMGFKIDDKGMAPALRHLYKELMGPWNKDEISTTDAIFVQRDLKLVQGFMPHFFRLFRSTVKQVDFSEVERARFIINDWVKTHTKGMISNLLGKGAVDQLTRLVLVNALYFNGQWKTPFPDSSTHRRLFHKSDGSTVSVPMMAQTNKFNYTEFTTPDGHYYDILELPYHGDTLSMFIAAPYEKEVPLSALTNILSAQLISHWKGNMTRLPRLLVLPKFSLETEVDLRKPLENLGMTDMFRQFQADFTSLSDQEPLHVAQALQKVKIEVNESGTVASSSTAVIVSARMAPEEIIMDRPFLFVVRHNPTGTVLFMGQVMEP

The target of the assay is Recombinant human PAI-1 (Homo sapiens, UniProt P05121). Put plainly: Plasma clot lysis assay for testing of PAI-1 inhibitors (clot lysis in platelet-poor plasma). The format is biochemical. Conditions: concentration at which clot lysis time is halved (pIC50=-log IC50); platelet-poor plasma 50%, PAI-1 10-13 ng/mL, t-PA 34 ng/mL, 37° C. On the procedure:
Plasma Clot Lysis Assay for Testing of PAI-1 Inhibitors
CaCl2, p.a. Stock solution 0.1 M in water.
PAI-1 inhibitors dissolved in 100% DMSO.
Experimental Procedures—Clot Lysis in Platelet-Poor Plasma
Blood from healthy fat-fasting volunteers was collected into 0.13 M trisodium citrate, 9 parts blood to 1 part anticoagulant. The tubes were centrifuged at 2000×g, 20 min, at RT. The supernatant, ie, the platelet poor plasma was pooled, aliquoted and frozen at −85° C. until used. At the day of experiment the plasma was thawed in a water bath and temperated to 37° C. All other constituents, except t-PA, were prewarmed to 37° C. To each well on a microtiter plate, 25 μL CaCl2, 25 μL PAI-1 or 25 μL PAI-1 vehicle, 20 μL saline and 5 μL drug or 5 μL vehicle (100% DMSO) were added. Plasma was mixed with cold t-PA solution in the relation 4 parts plasma with 1 part t-PA, just before adding 125 μL of this mixture to each well. The final concentration was 12.5 mM for CaCl2, 10-13 ng/mL for PAI-1, 34 ng/mL for t-PA, and the compounds were tested at a final concentration range 0.1 nM to 0.25 mM. The final plasma concentration was 50%, as a result of the different additives. The plate, covered with a plastic lid, was placed in a Microplate reader (Molecular Devices, US) and gently shaken. The change in turbidity was immediately monitored as a change in absorbance at 405 nm at 37° C. Data points were collected at intervals of 2 min, during a period of 10 h. After finished reading, the absorbance data were transformed into files containing the time and absorbance values for each well. The clot longevity, ie, the time the clot exists, was determined as the time between clot formation, ie, positive Vmax, and clot lysis, ie, negative Vmax. The effect of the drugs, ie, shortening of the longevity for the clot, was expressed as the concentration at which a halving of the clot lysis time was reached, the IC50 (pIC50=−log IC50). Control clot lysis time, set to 100%, was determined in the presence of PAI-1, and the maximal effect, ie, the shortest lysis time that can be reached under defined conditions in this system, in the absence of PAI-1 was set to 0%.
Compounds having a pIC50 higher than 4 were considered as being active.
The IC50 is the point on the concentration scale where inhibition reaches its midpoint. On to `CCCCCCCc1cc(=O)n2c(c1-c1ccc(F)c(F)c1)SC[C@H]2C(=O)O` [Example 1, (3R)-8-(3,4-Difluoro-phenyl)-7-heptyl-5-oxo-2,3-dihydro-5H-thiazolo[3,2-a]pyridine-3-carboxylic acid], for which the half-inhibitory concentration (IC50) is 15.8 µM.

Regarding `CCCCCCCc1cc(=O)n2c(c1-c1ccc(F)c(F)c1)SC[C@H]2C(=O)NS(C)(=O)=O` [Example 2, (3R)—N-[8-(3,4-Difluoro-phenyl)-7-heptyl-5-oxo-2,3-dihydro-5H-thiazolo[3,2-a]pyridine-3-carbonyl]-methanesulfonamide], the IC50 is 10 µM.

As to `CCCCCCCc1cc(=O)n([C@@H](C)C(=O)O)cc1-c1ccc(F)c(F)c1` [Example 3, (2S)-2-[5-(3,4-Difluoro-phenyl)-4-heptyl-2-oxo-2H-pyridin-1-yl]-propionic acid], the IC50 is 12.6 µM.

Take `CCCCCCCc1cc(=O)n2c(c1-c1ccc(F)c(F)c1)SC[C@@H]2C(N)=O` [Example 4, (3S)-8-(3,4-Difluoro-phenyl)-7-heptyl-5-oxo-2,3-dihydro-5H-thiazolo[3,2-a]pyridine-3-carboxylic acid amide]: the IC50 was 50.1 µM.

Consider `CCCCCCCc1cc(=O)n2c(c1-c1ccc(F)c(F)c1)SC[C@H]2c1nnn[nH]1` [Example 5, (3R)-8-(3,4-Difluoro-phenyl)-7-heptyl-3-(1H-tetrazol-5-yl)-2,3-dihydro-thiazolo[3,2-a]pyridin-5-one], for which the IC50 was 25.1 µM.

Consider `CCCCCCCc1c(-c2ccc(F)c(F)c2)c2n(c(=O)c1C(=O)O)[C@H](C(=O)OC)CS2` [Example 6, (3R)-8-(3,4-Difluoro-phenyl)-7-heptyl-5-oxo-2,3-dihydro-5H-thiazolo[3,2-a]pyridine-3,6-dicarboxylic acid 3-methyl ester], for which the IC50 is 20 µM.

As for `CCCCCCCc1cc(=O)n2c(c1-c1cccc(C(F)(F)F)c1)SC[C@H]2C(=O)O` [Example 7, (3R)-7-Heptyl-5-oxo-8-(3-trifluoromethyl-phenyl)-2,3-dihydro-5H-thiazolo[3,2-a]pyridine-3-carboxylic acid], the IC50 was 12.6 µM.

As to `CCCCCCCc1cc(=O)n2c(c1-c1cccc(C(F)(F)F)c1)SC[C@H]2C(=O)NS(=O)(=O)c1ccccc1` [Example 8, (3R)—N-[7-Heptyl-5-oxo-8-(3-trifluoromethyl-phenyl)-2,3-dihydro-5H-thiazolo[3,2-a]pyridine-3-carbonyl]-benzenesulfonamide], the IC50 is 2.51 µM.

On to `CCCCc1cc(=O)n2c(c1-c1cccc(C(F)(F)F)c1)SC[C@H]2C(=O)O` [Example 9, (3R)-7-Butyl-5-oxo-8-(3-trifluoromethyl-phenyl)-2,3-dihydro-5H-thiazolo[3,2-a]pyridine-3-carboxylic acid], for which the IC50 was 39.8 µM.

For `CCCCCCCc1c(-c2cccc(C(F)(F)F)c2)c2n(c(=O)c1[N+](=O)[O-])[C@H](C(=O)O)CS2` [Example 10, (3R)-7-Heptyl-6-nitro-5-oxo-8-(3-trifluoromethyl-phenyl)-2,3-dihydro-5H-thiazolo[3,2-a]pyridine-3-carboxylic acid], the IC50 is 3.98 µM.

Regarding `CCCCCCCc1cc(=O)n2c(c1-c1ccc(F)c(F)c1)SC[C@@H]2C(=O)O` [Example 11, (3S)-8-(3,4-Difluoro-phenyl)-7-heptyl-5-oxo-2,3-dihydro-5H-thiazolo[3,2-a]pyridine-3-carboxylic acid], the IC50 was 10 µM.

Turning to `CCCCCCc1c(-c2cccc(C(F)(F)F)c2)c2n(c(=O)c1[N+](=O)[O-])[C@H](C(=O)O)CS2` [Example 12, (3R)-7-Hexyl-6-nitro-5-oxo-8-(3-trifluoromethyl-phenyl)-2,3-dihydro-5H-thiazolo[3,2-a]pyridine-3-carboxylic acid], the half-inhibitory concentration (IC50) was 12.6 µM.

As to `CC(C)CCc1c(-c2cccc(C(F)(F)F)c2)c2n(c(=O)c1[N+](=O)[O-])[C@H](C(=O)O)CS2` [Example 13, (3R)-7-(3-methylbutyl)-6-nitro-5-oxo-8-(3-trifluoromethyl-phenyl)-2,3-dihydro-5H-thiazolo[3,2-a]pyridine-3-carboxylic acid], the IC50 was 12.6 µM.

Turning to `CCCCCCc1c(-c2cccc(C(F)(F)F)c2)c2n(c(=O)c1N)[C@H](C(=O)O)CS2` [Example 14, (3R)-6-Amino-7-hexyl-5-oxo-8-(3-trifluoromethyl-phenyl)-2,3-dihydro-5H-thiazolo[3,2-a]pyridine-3-carboxylic acid], the IC50 is 12.6 µM.

Turning to `CCCCc1c(-c2cccc(C(F)(F)F)c2)c2n(c(=O)c1[N+](=O)[O-])[C@H](C(=O)O)CS2` [Example 15, (3R)-7-Butyl-6-nitro-5-oxo-8-(3-trifluoromethyl-phenyl)-2,3-dihydro-5H-thiazolo[3,2-a]pyridine-3-carboxylic acid], the IC50 was 39.8 µM.

For `CC(C)CCc1c(-c2cccc(C(F)(F)F)c2)c2n(c(=O)c1N)[C@H](C(=O)O)CS2` [Example 16, (3R)-6-Amino-7-(3-methyl-butyl)-5-oxo-8-(3-trifluoromethyl-phenyl)-2,3-dihydro-5H-thiazolo[3,2-a]pyridine-3-carboxylic acid], the IC50 was 79.4 µM.

Consider `CCCCCCCc1c(-c2ccc(F)c(F)c2)c2n(c(=O)c1[N+](=O)[O-])[C@H](C(=O)O)CS2` [Example 17, (3R)-8-(3,4-Difluoro-phenyl)-7-heptyl-6-nitro-5-oxo-2,3-dihydro-5H-thiazolo[3,2-a]pyridine-3-carboxylic acid], for which the IC50 is 20 µM.

Regarding `CCCCCCCCc1cc(=O)n2c(c1-c1cccc(C(F)(F)F)c1)SC[C@H]2C(=O)O` [Example 18, (3R)-7-octyl-5-oxo-8-[3-(trifluoromethyl)phenyl]-2,3-dihydro-5H-[1,3]thiazolo[3,2-a]pyridine-3-carboxylic acid], the half-maximal inhibitory concentration (IC50) is 3.98 µM.

Take `CCCCCCCc1cc(=O)n2c(c1-c1cccs1)SC[C@H]2C(=O)O` [Example 19, (3R)-7-heptyl-5-oxo-8-(2-thienyl)-2,3-dihydro-5H-[1,3]thiazolo[3,2-a]pyridine-3-carboxylic acid]: the IC50 was 10 µM.

As to `CCCCCCCc1cc(=O)n2c(c1-c1c[nH]c3ccccc13)SC[C@H]2C(=O)O` [Example 20, (3R)-7-heptyl-8-(1H-indol-3-yl)-5-oxo-2,3-dihydro-5H-[1,3]thiazolo[3,2-a]pyridine-3-carboxylic acid], the IC50 is 12.6 µM.

With `O=C(O)[C@@H]1CSc2c(-c3ccccc3)c(CCCOc3ccc(Cl)cc3Cl)cc(=O)n21` [Example 21, (3R)-7-[3-(2,4-dichloro-phenoxy)-propyl]-5-oxo-8-phenyl-2,3-dihydro-51H-thiazolo[3,2-a]pyridine-3-carboxylic acid], the IC50 is 12.6 µM.

On to `CCCCCCCc1cc(=O)n2c(c1-c1ccc(F)c(F)c1)S[C@H](OC)[C@H]2C(=O)O` [Example 22, (2S,3R)-8-(3,4-difluorophenyl)-7-heptyl-2-methoxy-5-oxo-2,3-dihydro-5H-[1,3]thiazolo[3,2-a]pyridine-3-carboxylic acid], for which the IC50 was 10 µM.

`CCCCCCCc1cc(=O)n2c(C(=O)O)csc2c1-c1ccc(F)c(F)c1` [Example 23, 8-(3,4-difluorophenyl)-7-heptyl-5-oxo-5H-[1,3]thiazolo[3,2-a]pyridine-3-carboxylic acid]: the IC50 was 10 µM.

As for `CCCCCCCc1cc(=O)n2c(c1-c1ccc(F)c(F)c1)S[C@H](c1ccccc1)[C@H]2C(=O)O` [Example 24, (2R,3R)-8-(3,4-difluorophenyl)-7-heptyl-5-oxo-2-phenyl-2,3-dihydro-5H-[1,3]thiazolo[3,2-a]pyridine-3-carboxylic acid], the IC50 was 5.01 µM.

`CCCCCCCc1cc(=O)n2c(c1-c1ccc(F)c(F)c1)S[C@H](C)[C@H]2C(=O)O` [Example 25, (2R,3R)-8-(3,4-difluorophenyl)-7-heptyl-2-methyl-5-oxo-2,3-dihydro-5H-[1,3]thiazolo[3,2-a]pyridine-3-carboxylic acid]: the IC50 was 3.98 µM.
